These results are taken from article PMC7113757 (Antiviral Research, 2014).

The EC50 is the concentration needed to bring the measured effect to its halfway point. Low readings indicate greater potency, high ones weaker potency.

Experiment [1] has as its target T1, EMCV 3C^pro (Encephalomyocarditis virus, UniProt P03304).
T1 sequence (P03304 1626-1830 limits assumed): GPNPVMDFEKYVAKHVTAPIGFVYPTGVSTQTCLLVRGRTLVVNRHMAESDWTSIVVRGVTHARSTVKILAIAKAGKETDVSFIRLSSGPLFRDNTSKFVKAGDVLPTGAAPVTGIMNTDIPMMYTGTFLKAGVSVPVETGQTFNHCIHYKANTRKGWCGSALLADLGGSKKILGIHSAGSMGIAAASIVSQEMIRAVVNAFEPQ
It counts as cell-based.

Experiment [2] concerns the target T2, SAFV 3C^pro (Saffold virus, UniProt C0MHL9).
T2 sequence (C0MHL9 1618-1834 limits assumed): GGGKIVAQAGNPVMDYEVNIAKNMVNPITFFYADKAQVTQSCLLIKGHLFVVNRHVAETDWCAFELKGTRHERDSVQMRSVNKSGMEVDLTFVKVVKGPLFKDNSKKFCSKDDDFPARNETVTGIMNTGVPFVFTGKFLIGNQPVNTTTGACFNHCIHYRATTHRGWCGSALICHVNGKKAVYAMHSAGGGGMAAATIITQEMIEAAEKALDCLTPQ
It counts as cell-based.

In experiment [3] the target is T3, CVB3 3C^pro (Coxsackievirus B3, UniProt P03313). The experiment can be described thus: Western blot of fusion protein cleavage in COS-1 cells. It counts as cell-based. The settings on record: 50 μM, pBind-3Cpro(CVB3)-VP16. (In western blotting, separated proteins are transferred to a membrane and probed.)
Experiment [4] concerns the target T3, CVB3 3C^pro. The experiment can be described thus: Cell-based protease assay with EGFP read-out. The settings on record: 50 μM, COS-1 cells, imaged after 2 days.
Experiment [5] concerns the target PV 3C^pro (Poliovirus type 1, UniProt P03300). It counts as cell-based.
Experiment [6] addresses T3, CVB3 3C^pro. The experiment can be described thus: Cell-based protease assay.
In experiment [7] the target is EV71 3C^pro (Human enterovirus 71, UniProt Q66478). It counts as cell-based.
Experiment [8] concerns the target FMDV 3C^pro (Foot-and-mouth disease virus serotype O, UniProt P03305). The experiment can be described thus: cell-based. It counts as cell-based.
Experiment [9] deals with T4, HPeV 3C^pro (Human parechovirus 1, UniProt Q66578).
T4 sequence (Q66578 1518-1711 limits assumed): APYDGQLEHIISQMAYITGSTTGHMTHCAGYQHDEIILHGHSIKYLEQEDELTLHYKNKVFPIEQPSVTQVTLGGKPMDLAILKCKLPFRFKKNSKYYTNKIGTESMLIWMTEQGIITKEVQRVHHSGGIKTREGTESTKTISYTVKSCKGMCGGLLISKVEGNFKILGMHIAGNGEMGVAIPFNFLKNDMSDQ
It counts as cell-based.

In experiment [10] the target is T5, HAV 3C^pro (Human hepatitis A virus genotype IB, UniProt P08617).
T5 sequence (P08617 1520-1738 limits assumed): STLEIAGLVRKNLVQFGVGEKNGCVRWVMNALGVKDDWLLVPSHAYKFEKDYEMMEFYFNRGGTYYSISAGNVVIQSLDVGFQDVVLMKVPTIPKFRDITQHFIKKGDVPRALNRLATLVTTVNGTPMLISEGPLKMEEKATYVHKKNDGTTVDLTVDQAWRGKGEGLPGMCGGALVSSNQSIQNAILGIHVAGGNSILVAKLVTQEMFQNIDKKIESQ
It counts as cell-based.

In experiment [11] the test system is HAV strain HM175. To be noted: ref Debing et al., 2013; cited from earlier work.
Experiment [12] has as its target HRV14 3C^pro (Human rhinovirus 14, UniProt P03303). It counts as cell-based.
Experiment [13] relates to EMCV. The experiment can be described thus: Growth curves of EMCV. It counts as cell-based. The settings on record: 50 μM.
In experiment [14] the test system is SAFV. The experiment can be described thus: Growth curves of SAFV. It counts as cell-based. To be noted: 50 μM.

Consider `CCOC(=O)/C=C/[C@H](C[C@@H]1CCNC1=O)NC(=O)[C@@H](CC(=O)[C@@H](NC(=O)c1cc(C)on1)C(C)C)Cc1ccc(F)cc1` [AG7088], for which, in [1], the “effect on reporter activity, EMCV 3Cpro construct” value was “no effect”. Moreover, the “effect on reporter activity, SAFV 3Cpro construct” value in experiment [2] is recorded as “no effect”. Further, in experiment [3], the “cleavage of fusion protein (Western blot)” value is on record as “not completely blocked”. In experiment [4], the “GFP signal from pG5EGFP reporter” value was “GFP was visible”. Moreover, in [5], the “FLuc expression upon treatment, PV 3Cpro construct” value is “induced”. The same molecule yielded an EC50 in experiment [6] of 1.1 µM. Moreover, the “FLuc expression upon treatment, CVB3 3Cpro construct” value in experiment [6] (50 μM, COS-1 cells) is “induced”. For the same molecule, in experiment [6] (50 μM, COS-1 cells, CVB3 3Cpro construct), the “increase in FLuc levels compared to untreated” value was roughly 40 fold. Besides, the “FLuc expression upon treatment, EV71 3Cpro construct” value in experiment [7] is recorded as “induced”. Also, the “FLuc expression upon treatment, FMDV 3Cpro construct” value in [8] is listed as “increased”. For the same molecule, the “effect on reporter activity, HPeV 3Cpro construct” value in experiment [9] is listed as “no effect”. Further, the “effect on reporter activity, HAV 3Cpro construct” value in experiment [10] is given as “no effect”. For the same molecule, the “effect on HAV replication, strain HM175” value in experiment [11] was “no effect”. Moreover, in experiment [12], the “FLuc expression upon treatment, HRV14 3Cpro construct” value was “induced”. Moreover, the “activity against EMCV in growth curves” value in experiment [13] is recorded as “no significant activity”. Further, the “activity against SAFV in growth curves” value in experiment [14] is “no significant activity”.

`C#CC[C@@H](C(=O)N[C@H](/C=C/C(=O)OCC)C[C@@H]1CCNC1=O)n1cccc(NC(=O)c2cc(C)on2)c1=O` [AG7404] had an EC50 in experiment [6] of 3.6 µM. In [8], the EC50 was greater than 100 µM and the “inhibitory activity towards FMDV 3Cpro” value is “little or no inhibitory activity”.
